Data published in patent US20250304623A1, “PEPTIDES FOR INTRACELLULAR DELIVERY” (UNIVERSIDADE DE SANTIAGO DE COMPOSTELA, priority 2022, published 2025).
Starred links: 1 amine or outer side, 2 acyl side, 3 side chain; linkers in the order of their positions; H or OH if unused. Residues, ends and D or L forms follow the SMILES beside them. Groups on a side chain read outwards from the residue. *: point of attachment. Glutaryl = O=C(CCCC(=O)[*:2])[*:1]; NHNH2 = NN*

How the values were obtained:
Assay type in all cases: cell-based
HepG2 cells [1] = experiment: RLuc pDNA delivery, robotic library screening, HepG2
Experimental: Cells were seeded in a 96 well plate the day before the experiment at a concentration of 60,000 cell/mL (100 μL/w) in DMEM+10% FBS+1% Gln-Abt. For robotic library screening, the delivery of pDNA encoding for the expression of Renilla luciferase gene (RLuc, pRL-CMV (Promega, #E2261)) in six different cell lines was performed. Amphihilic molecule stock solutions in DMSO were diluted with DMEM and freshly mixed with pDNA stock solutions in DMEM prior to transfection experiments, to afford several complexes at different amphiphile concentration (2-10 μM) while maintaining a constant final pDNA concentration of 2 ng/μL. The mixture was shaken for 30 min at room temperature before the addition to the cells. The cell medium was aspirated, and cells were washed twice with PBS. Finally, 50 μL of the complex's solution were added to the cells and incubated for 4 h. After the incubation, the medium was replaced by 100 μL of fresh DMEM supplemented with 10% FBS. 72 hours after transfection the DMEM was removed, cells were washed once with HBSS and 90 μL of HBSS were added to each well. Cells were incubated at 37° C. for 30 minutes. Then basal luminescence levels were read in a plate reader. Immediately, 10 μL of coelenterazine h in HBSS were added to each well (5 μM final concentration) and cells were incubated at 37° C. for 10 minutes. Finally, the total luminescence measurement of the plates was performed. Amphiphile transfection efficiency was compared and normalized to Lipofectamine® 2000 efficiency (value of 1 in Tables 1-5 and 7; bold numbers). All experiments were done in triplicate.
(§1) Tables 1-7: RLuc (pDNA) or EGFP (mRNA) expression levels were normalized to Lipofectamine reagents (value=1) and expressed as fold-times signal increase. In the case of siRNA, the siRNA treated cells fluorescence was compared with siMOCK control fluorescence, while Cas9-RNP mediated knockout was measured against the fluorescence of untreated cells. In both siRNA and Cas9-RNP, values are expressed as % fluorescence reduction. Amphiphile concentration was 5 μM in all cases. All experiments were performed in triplicate.
Tables 8-13 show the mean (triplicates) luminescent intensity (RLU) measured after the transfection of RLuc pDNA by different amphiphiles at different concentrations in a variety of cell lines. Background luminescence values, accounted by untransfected control cells, were subtracted for processing.

ARPE19 cells = experiment: RLuc pDNA delivery, robotic library screening, ARPE19
HepG2 cells [2] = experiment: EGFP mRNA delivery, robotic library screening, HepG2; settings: for mean fluorescence intensity after transfection of EGFP mRNA: HepG2 cells
Experimental: Cells were seeded in a 96 well plate the day before the experiment at a concentration of 50,000 cell/mL (100 μL/w) in DMEM+10% FBS+1% Gln-Abt. For robotic library screening, the delivery of EGFP-mRNA (from TriLink, fully substituted with 5-methoxyuridine, capped and polyadenylated; TriLink, CleanCap® EGFP mRNA (5moU), ref. L-7201) in six different cell lines was performed. Amphiphilic molecule stock solutions were prepared in DMSO as described above and diluted in DMEM to afford a range of concentrations. The solutions of EGFP-mRNA/amphiphilic molecule complexes were freshly prepared prior to the transfection experiments. 35 μL of the corresponding amphiphile were added to 10 μL of a solution of EGFP-mRNA at 10 ng/μL in DMEM. The mixture was shaken for 30 min at room temperature before the addition to the cells. The cell medium was aspirated, and cells were washed with PBS twice. […] After the incubation, the medium was replaced by 100 μL of fresh DMEM supplemented with 10% FBS. The total EGFP fluorescence was quantified after 72 h in a well plate reader. Amphiphile transfection efficiency was compared and normalized to Lipofectamine® MessengerMax efficiency (value of 1 in Tables 1-5 and 7; double underlined numbers). All experiments were done in triplicate.
as §1
Tables 14-19 show the mean (triplicates) fluorescence intensity measured after the transfection of EGFP mRNA by different amphiphiles at different concentrations in a variety of cell lines. Background fluorescence values, accounted by untreated control cells, were subtracted for processing.

Compound: CC(=O)N[C@@H](CCCNC(=N)N)C(=O)N[C@@H](CCCCNC(=O)CCCC(=O)NN)C(=O)N[C@@H](Cc1c[nH]cn1)C(=O)N[C@@H](CCCNC(=N)N)C(=O)N[C@@H](CCCCNC(=O)CCCC(=O)NN)C(=O)N[C@@H](CCCCNC(=O)CCCC(=O)NN)C(=O)N[C@@H](Cc1c[nH]cn1)C(N)=O [7.3(L-H), Ac-RK*HRK*K*H-NH2] (Ac-RK([Glutaryl-NHNH2])HRK([Glutaryl-NHNH2])K([Glutaryl-NHNH2])H-NH2)
- mean luminescent intensity (RLuc pDNA) (HepG2 cells [1]; Myristoleyl, 5 μM): 355590 RLU
- mean luminescent intensity (RLuc pDNA) (HepG2 cells [1]; Myristoleyl, 10 μM): 584678 RLU
- mean luminescent intensity (RLuc pDNA) (HepG2 cells [1]; Myristoleyl, 15 μM): 406961 RLU
- mean luminescent intensity (RLuc pDNA) (HepG2 cells [1]; Oleyl, 5 μM): 142065 RLU
- mean luminescent intensity (RLuc pDNA) (HepG2 cells [1]; Oleyl, 10 μM): 68668 RLU
- mean luminescent intensity (RLuc pDNA) (HepG2 cells [1]; Palmitoleyl, 5 μM): 642665 RLU
- mean luminescent intensity (RLuc pDNA) (HepG2 cells [1]; Palmitoleyl, 10 μM): 519370 RLU
- mean luminescent intensity (RLuc pDNA) (HepG2 cells [1]; Palmitoleyl, 15 μM): 265272 RLU
- mean luminescent intensity (RLuc pDNA) (HepG2 cells [1]; Petroselinyl, 5 μM): 466959 RLU
- mean luminescent intensity (RLuc pDNA) (HepG2 cells [1]; Petroselinyl, 10 μM): 437890 RLU
- mean luminescent intensity (RLuc pDNA) (HepG2 cells [1]; Petroselinyl, 15 μM): 98868 RLU
- mean luminescent intensity (RLuc pDNA) (ARPE19 cells; Myristoleyl, 5 μM): 34050 RLU
- mean luminescent intensity (RLuc pDNA) (ARPE19 cells; Myristoleyl, 10 μM): 40509 RLU
- mean luminescent intensity (RLuc pDNA) (ARPE19 cells; Myristoleyl, 15 μM): 13457 RLU
- mean luminescent intensity (RLuc pDNA) (ARPE19 cells; Palmitoleyl, 5 μM): 111815 RLU
- mean luminescent intensity (RLuc pDNA) (ARPE19 cells; Palmitoleyl, 10 μM): 92487 RLU
- mean luminescent intensity (RLuc pDNA) (ARPE19 cells; Palmitoleyl, 15 μM): 55716 RLU
- mean luminescent intensity (RLuc pDNA) (ARPE19 cells; Petroselinyl, 5 μM): 79286 RLU
- mean luminescent intensity (RLuc pDNA) (ARPE19 cells; Petroselinyl, 10 μM): 77882 RLU
- mean luminescent intensity (RLuc pDNA) (ARPE19 cells; Petroselinyl, 15 μM): 15465 RLU
- pDNA delivery, times better than Lipofectamine 2000 (ARPE19 cells; palmitoleyl aldehyde): 10 times
- pDNA delivery, times better than Lipofectamine 2000 (ARPE19 cells; petroselinyl aldehyde): 7 times
- mean fluorescence intensity after transfection of EGFP mRNA (HepG2 cells [2]; Dodecanal, 5 μM): 1140
- mean fluorescence intensity after transfection of EGFP mRNA (HepG2 cells [2]; Dodecanal, 10 μM): 201
- mean fluorescence intensity after transfection of EGFP mRNA (HepG2 cells [2]; Dodecanal, 15 μM): 533
- mRNA delivery relative to Lipofectamine MessengerMAX (HepG2 cells [2]; HepG2, myristoleyl or petroselinyl aldehydes): able to outperform the activity of Lipofectamine® MessengerMAX
- mean fluorescence intensity after transfection of EGFP mRNA (HepG2 cells [2]; Myristoleyl, 5 μM): 31364
- mean fluorescence intensity after transfection of EGFP mRNA (HepG2 cells [2]; Myristoleyl, 10 μM): 12495
- mean fluorescence intensity after transfection of EGFP mRNA (HepG2 cells [2]; Myristoleyl, 15 μM): 3194
- mean fluorescence intensity after transfection of EGFP mRNA (HepG2 cells [2]; Oleyl, 5 μM): 4242
- mean fluorescence intensity after transfection of EGFP mRNA (HepG2 cells [2]; Oleyl, 10 μM): 1217
- mean fluorescence intensity after transfection of EGFP mRNA (HepG2 cells [2]; Oleyl, 15 μM): 1484
- mean fluorescence intensity after transfection of EGFP mRNA (HepG2 cells [2]; Palmitoleyl, 5 μM): 8855
- mean fluorescence intensity after transfection of EGFP mRNA (HepG2 cells [2]; Palmitoleyl, 10 μM): 3885
- mean fluorescence intensity after transfection of EGFP mRNA (HepG2 cells [2]; Petroselinyl, 5 μM): 35842
- mean fluorescence intensity after transfection of EGFP mRNA (HepG2 cells [2]; Petroselinyl, 10 μM): 18737
- mean fluorescence intensity after transfection of EGFP mRNA (HepG2 cells [2]; Petroselinyl, 15 μM): 4860

Compound: Ac-RHLK*RHK*RRLK*RH-NH2 (Ac-RHLKRHKRRLKRH-NH2; not fully specified (residues 4, 7, 11); printed as Ac-RHLK*RHK*RRLK*RH-NH2; also: linker on K* not given here) [13(3His)]
- mean luminescent intensity (RLuc pDNA) (HepG2 cells [1]; Myristoleyl, 5 μM): 149920 RLU
- mean luminescent intensity (RLuc pDNA) (HepG2 cells [1]; Myristoleyl, 15 μM): 29774 RLU
- mean luminescent intensity (RLuc pDNA) (HepG2 cells [1]; Oleyl, 10 μM): 33557 RLU
- mean luminescent intensity (RLuc pDNA) (HepG2 cells [1]; Oleyl, 15 μM): 1389 RLU
- mean luminescent intensity (RLuc pDNA) (HepG2 cells [1]; Palmitoleyl, 5 μM): 65912 RLU
- mean luminescent intensity (RLuc pDNA) (HepG2 cells [1]; Palmitoleyl, 15 μM): 17170 RLU
- mean luminescent intensity (RLuc pDNA) (ARPE19 cells; Dodecanal, 5 μM): 11495 RLU
- mean luminescent intensity (RLuc pDNA) (ARPE19 cells; Dodecanal, 10 μM): 366 RLU
- mean luminescent intensity (RLuc pDNA) (ARPE19 cells; Myristoleyl, 5 μM): 32411 RLU
- mean luminescent intensity (RLuc pDNA) (ARPE19 cells; Myristoleyl, 10 μM): 1998 RLU
- mean luminescent intensity (RLuc pDNA) (ARPE19 cells; Myristoleyl, 15 μM): 28 RLU
- mean luminescent intensity (RLuc pDNA) (ARPE19 cells; Oleyl, 5 μM): 6754 RLU
- mean luminescent intensity (RLuc pDNA) (ARPE19 cells; Palmitoleyl, 5 μM): 40629 RLU
- mean luminescent intensity (RLuc pDNA) (ARPE19 cells; Palmitoleyl, 10 μM): 6400 RLU
- mean luminescent intensity (RLuc pDNA) (ARPE19 cells; Petroselinyl, 5 μM): 33797 RLU
- mean luminescent intensity (RLuc pDNA) (ARPE19 cells; Petroselinyl, 10 μM): 10940 RLU
- mean luminescent intensity (RLuc pDNA) (ARPE19 cells; Petroselinyl, 15 μM): 3792 RLU

Compound: Ac-RK*LRRLLRK*-NH2 (Ac-RK(NHNH2)LRRLLRK(NHNH2)-NH2; not fully specified; printed as Ac-RK*LRRLLRK*-NH2; also: K*2,K*9: native or modified lysine (ε-amide to a linker)) [Peptide 9.2]
- mean luminescent intensity (RLuc pDNA) (HepG2 cells [1]; Dodecanal, 10 μM): 5678 RLU
- mean luminescent intensity (RLuc pDNA) (HepG2 cells [1]; Dodecanal, 15 μM): 2289 RLU
- mean luminescent intensity (RLuc pDNA) (HepG2 cells [1]; Myristoleyl, 5 μM): 26828 RLU
- mean luminescent intensity (RLuc pDNA) (HepG2 cells [1]; Myristoleyl, 10 μM): 68860 RLU
- mean luminescent intensity (RLuc pDNA) (HepG2 cells [1]; Myristoleyl, 15 μM): 46601 RLU
- mean luminescent intensity (RLuc pDNA) (ARPE19 cells; Myristoleyl, 5 μM): −374 RLU
- mean luminescent intensity (RLuc pDNA) (ARPE19 cells; Myristoleyl, 10 μM): −528 RLU
- mean luminescent intensity (RLuc pDNA) (ARPE19 cells; Myristoleyl, 15 μM): −547 RLU

Compound: Ac-RRLK*RLLRRLK*RL-NH2 (Ac-RRLK(NHNH2)RLLRRLK(NHNH2)RL-NH2; not fully specified; printed as Ac-RRLK*RLLRRLK*RL-NH2; also: K*4,K*11: native or modified lysine (ε-amide to a linker)) [Peptide 13.2]
- mean luminescent intensity (RLuc pDNA) (ARPE19 cells; Oleyl, 5 μM): 1077 RLU
- mean luminescent intensity (RLuc pDNA) (ARPE19 cells; Oleyl, 10 μM): 499 RLU
- mean luminescent intensity (RLuc pDNA) (ARPE19 cells; Oleyl, 15 μM): 641 RLU
- mean fluorescence intensity after transfection of EGFP mRNA (HepG2 cells [2]; Oleyl, 5 μM): 612
